# Laboratory results published in patent US12550899B2, “Topramezone derivative and use thereof” (priority 2023, dated 2026).
# What was measured:
# Format in all cases: in vivo
# Portulaca oleracea = assay: Laboratory bioactivity efficacy test 2.2 (foliar spray); conditions: for GR50 (95% confidence interval) / GR90 (95% confidence interval): fresh weight control efficacy 20 days post-application
# Procedure: (§1) • grassy weeds: Digitaria sanguinalis, Eleusine indica, Echinochloa crusgalli; • Broadleaf weeds: Portulaca oleracea, Abutilon theophrasti medicus. 2.2.2 Test Conditions
# (§2) The soil used for the test was a mixture of surface 20 cm loam and vermiculite, mixed in a volume ratio of 3:1 to form a culture soil. The test weeds were cultured in a glass greenhouse with a temperature ranging from 25° C. to 35° C. and under natural light.
# (§3) Quantified seeds of Digitaria sanguinalis, Eleusine indica, Echinochloa crusgalli, Portulaca oleracea, and Abutilon theophrasti medicus were sown in plastic pots with a diameter of 9 cm, and covered with 1-2 mm of soil. The ports were then placed in enamel trays filled with water, and watered by bottom irrigation. After the water seeped to the soil surface, the pots were transferred to the glass greenhouse for standby.
# (§4) Five dosages were set for Compound I, Compound II and the control herbicide Topramezone, which were 3.75, 7.5, 15, 30 and 60 grams of active ingredient per hectare respectively. In addition, a blank control was also prepared.
# (§5) The required amount of the herbicide was accurately measured out and directly added with water, which was diluted to the required dosage by using the serial dilution method for standby.
# (§6) The test was conducted on grassy weeds at the two-leaf and one-heart stage, Abutilon theophrasti medicus at the 2-true-leaf stage, and Portulaca oleracea at the 3-5-leaf stage, with the stems and leaves both sprayed uniformly. The ASS-4 automatic control spraying system with a fan-shaped nozzle was used indoors for herbicide application. Depending on the nozzle pressure and flow rate, 50 mL of herbicide solution was applied to a spraying area of 1.1 m^2 (which was equivalent to the water consumption of 30 L per mu). The system's operating speed was calibrated. The plastic pots to be treated were arranged evenly on the spraying platform to ensure uniform treatment. The spray pressure was set to 0.35 MPa, and the flow rate of the fan-shaped nozzle was set to 800 mL/min. The spraying was carried out in sequence from the low dosage to the high dosage. Each treatment was repeated two to four times.
# (§7) The herbicide was applied once. After spraying, the pots were air-dried for one day and then placed in the glass greenhouse. Regular watering was conducted to maintain moisture.
# (§8) The damage symptoms of the weeds (such as growth inhibition, chlorosis, malformation, etc.) were carefully recorded at 3, 7, 10, and 20 days after herbicide application. A visual comparison of the herbicide effectiveness was made. At 20 days post-application, the fresh weight of the aboveground parts of the weeds from each treatment group was measured, and the fresh weight control efficacy was calculated.
# (§9) The treatment results were calculated according to the following formula: weed fresh weight control efficacy (%)=(control fresh weight−treatment fresh weight)/control fresh weight×100.
# (§10) A DPS statistical software was used to conduct regression analysis on the logarithmic values of the herbicide dosage and the probit values of the weed fresh weight control efficacy, and the correlation coefficient, GR50, GR90, and the 95% confidence interval were calculated.
# [1] = tested on: Abutilon theophrasti medicus; assay: as above; conditions: for Visual observation of weeds: 3 to 7 days after application, broadleaf weeds like Abutilon theophrasti medicus; for GR90 (95% confidence interval) / GR50 (95% confidence interval): fresh weight control efficacy 20 days post-application
# Procedure: as §1, §2, §3, §4, §5, §6, §7, §8, §9, §10
# Eleusine indica = assay: as above; conditions: fresh weight control efficacy 20 days post-application
# Procedure: as §1, §2, §3, §4, §5, §6, §7, §8, §9, §10
# Digitaria sanguinalis = assay: as above; conditions: fresh weight control efficacy 20 days post-application
# Procedure: as §1, §2, §3, §4, §5, §6, §7, §8, §9, §10
# Echinochloa crusgalli = assay: as above; conditions: fresh weight control efficacy 20 days post-application
# Procedure: as §1, §2, §3, §4, §5, §6, §7, §8, §9, §10
# Corn (Sweet Corn) = assay: Corn safety laboratory test; conditions: for Fresh Weight / Fresh Weight Control Efficacy: 15 days after application
# Procedure: (§11) Three corn varieties: Zhengdan 958, white waxy corn, and sweet corn (Runhua sweet corn).
# (§12) The soil used for the test was a mixture of surface 20 cm loam and vermiculite, mixed in a volume ratio of 3:1 to form a culture soil. The test corn was cultured in a glass greenhouse with a temperature ranging from 25° C. to 35° C. and under natural light.
# (§13) A measured quantity of corn seeds were sown in plastic pots with a diameter of 15 cm, and covered with 2-3 cm of soil. The ports were then placed in enamel trays filled with water, and watered by bottom irrigation. After sowing, the pots were transferred to the glass greenhouse for cultivation and growth.
# (§14) In the corn safety test, dosages were set for the two Compounds (Compound I of the present invention and Compound II of the present invention) and the control herbicide Topramezone, which were 15, 30, 60, and 120 grams of active ingredient per hectare respectively. In addition, a blank control was also prepared.
# (§15) The required amount of the herbicide was accurately measured out, an appropriate amount of emulsifier and organic solvent were added to dissolve the herbicide, and then a certain amount of water was added therein until the herbicide was diluted to the required dosage by using the serial dilution method for standby.
# (§16) Corn stems and leaves were uniformly sprayed at the 3-4-leaf stage.
# as §6, with “ASS-3” for “test was conducted on grassy weeds at the two-leaf and one-heart stage, Abutilon theophrasti medicus at the 2-true-leaf stage, and Portulaca oleracea at the 3-5-leaf stage, with the stems and leaves both sprayed uniformly. The ASS-4”, “three” for “two to four”
# as §7
# (§17) After application of the herbicide, whether there were any phytotoxic symptoms in the corn for each treatment was recorded. If yes, the phytotoxicity symptoms and grade were recorded in detail. 15 days after application, the fresh weight of the corn in each treatment was measured and the fresh weight control efficacy was calculated to assess the safety of the herbicide on the corn.
# (§18) The treatment results were calculated according to the following formula: fresh weight control efficacy (%)=(control fresh weight−treatment fresh weight)/control fresh weight×100.
# Corn (White Waxy Corn) = assay: Corn safety laboratory test; conditions: for Fresh Weight / Fresh Weight Control Efficacy: 15 days after application
# Procedure: as §11, §12, §13, §14, §15, §16
# as §6, with “ASS-3” for “test was conducted on grassy weeds at the two-leaf and one-heart stage, Abutilon theophrasti medicus at the 2-true-leaf stage, and Portulaca oleracea at the 3-5-leaf stage, with the stems and leaves both sprayed uniformly. The ASS-4”, “three” for “two to four”
# as §7, §17, §18
# Corn (Zhengdan 958) = assay: Corn safety laboratory test; conditions: for Fresh Weight / Fresh Weight Control Efficacy: 15 days after application
# Procedure: as §11, §12, §13, §14, §15, §16
# as §6, with “ASS-3” for “test was conducted on grassy weeds at the two-leaf and one-heart stage, Abutilon theophrasti medicus at the 2-true-leaf stage, and Portulaca oleracea at the 3-5-leaf stage, with the stems and leaves both sprayed uniformly. The ASS-4”, “three” for “two to four”
# as §7, §17, §18
# [2] = Sweet Corn, dosage 15 g a.i./ha
# [3] = Sweet Corn, dosage 30 g a.i./ha
# [4] = Sweet Corn, dosage 60 g a.i./ha
# [5] = Sweet Corn, dosage 120 g a.i./ha
# [6] = White Waxy Corn, dosage 15 g a.i./ha
# [7] = White Waxy Corn, dosage 30 g a.i./ha
# [8] = White Waxy Corn, dosage 60 g a.i./ha
# [9] = White Waxy Corn, dosage 120 g a.i./ha
# [10] = Zhengdan 958, dosage 15 g a.i./ha
# [11] = Zhengdan 958, dosage 30 g a.i./ha
# [12] = Zhengdan 958, dosage 60 g a.i./ha
# [13] = Zhengdan 958, dosage 120 g a.i./ha
smiles,measurement,setting,value
"COC(=O)OC(C)Oc1c(C(=O)c2ccc(S(C)(=O)=O)c(C3=NOCC3)c2C)cnn1C (stereo not drawn) [Compound I, 1-((4-(3-(4,5-dihydroisoxazol-3-yl)-2-methyl-4-(methylsulfonyl)benzoyl)-1-methyl-1H-pyrazol-5-yl)oxy)ethyl methyl carbonate]",Control efficacy compared with Topramezone (in words),Portulaca oleracea,significantly better control efficacy
same,Efficacy relative to that of Topramezone,Portulaca oleracea,approximately 3.8 times
same,GR50 (95% confidence interval),Portulaca oleracea,3.83 (2.36-5.16) g a.i./ha
same,GR90 (95% confidence interval),Portulaca oleracea,9.29 (7.46-10.81) g a.i./ha
same,Visual observation of weeds,[1],directly dried up and died
same,GR90 (95% confidence interval),[1]; Abutilon theophrasti Medicago,9.48 (4.30-13.21) g a.i./ha
same,GR50 (95% confidence interval),[1]; Abutilon theophrasti medicus,3.16 (0.37-5.92) g a.i./ha
same,GR50,Eleusine indica,2.71 g a.i./ha
same,GR90,Eleusine indica,14.85 g a.i./ha
same,GR50,Digitaria sanguinalis,10.92 g a.i./ha
same,GR90,Digitaria sanguinalis,35.88 g a.i./ha
same,GR50,Echinochloa crusgalli,6.03 g a.i./ha
same,GR90,Echinochloa crusgalli,11.04 g a.i./ha
same,Corn Growth Status,Corn (Sweet Corn); in vivo,"Good, Normal Growth"
same,Growth of corn / phytotoxicity (in words),Corn (Sweet Corn); in vivo,"normal, without causing any phytotoxicity"
same,Corn Growth Status,Corn (White Waxy Corn); in vivo,"Good, Normal Growth"
same,Growth of corn / phytotoxicity (in words),Corn (White Waxy Corn); in vivo,"normal, without causing any phytotoxicity"
same,Corn Growth Status,Corn (Zhengdan 958); in vivo,"Good, Normal Growth"
same,Growth of corn / phytotoxicity (in words),Corn (Zhengdan 958); in vivo,"normal, without causing any phytotoxicity"
"Cc1c(C(=O)c2cnn(C)c2OC(=O)C(C)(C)C)ccc(S(C)(=O)=O)c1C1=NOCC1 [Compound II, 4-(3-(4,5-dihydroisoxazol-3-yl)-2-methyl-4-(methylsulfonyl)benzoyl)-1-methyl-1H-pyrazol-5-yl pivalate]",Control efficacy compared with Topramezone (in words),Portulaca oleracea,slightly better control efficacy
same,GR50 (95% confidence interval),Portulaca oleracea,5.57 (4.07-7.00) g a.i./ha
same,GR90 (95% confidence interval),Portulaca oleracea,28.20 (23.41-35.73) g a.i./ha
same,Visual observation of weeds,[1],directly dried up and died
same,GR50 (95% confidence interval),[1]; Abutilon theophrasti Medicago,1.19 (0.26-2.46) g a.i./ha
same,GR90 (95% confidence interval),[1]; Abutilon theophrasti Medicago,7.90 (4.76-10.66) g a.i./ha
same,GR50,Eleusine indica,3.79 g a.i./ha
same,GR90,Eleusine indica,19.79 g a.i./ha
same,GR50,Digitaria sanguinalis,12.53 g a.i./ha
same,GR90,Digitaria sanguinalis,48.19 g a.i./ha
same,GR50,Echinochloa crusgalli,6.13 g a.i./ha
same,GR90,Echinochloa crusgalli,12.64 g a.i./ha
same,Corn Growth Status,Corn (Sweet Corn); in vivo,"Good, Normal Growth"
same,Safety to corn (in words),Corn (Sweet Corn); in vivo,safe
same,Corn Growth Status,Corn (White Waxy Corn); in vivo,"Good, Normal Growth"
same,Safety to corn (in words),Corn (White Waxy Corn); in vivo,safe
same,Corn Growth Status,Corn (Zhengdan 958); in vivo,"Good, Normal Growth"
same,Growth of corn / phytotoxicity (in words),Corn (Zhengdan 958); in vivo,"normal, without causing any phytotoxicity"
Cc1c(C(=O)c2cnn(C)c2O)ccc(S(C)(=O)=O)c1C1=NOCC1 [Topramezone],GR50 (95% confidence interval),Portulaca oleracea,7.56 (6.00-9.07) g a.i./ha
same,GR90 (95% confidence interval),Portulaca oleracea,35.74 (29.42-46.03) g a.i./ha
same,Visual observation of weeds,[1],directly dried up and died
same,GR50 (95% confidence interval),[1]; Abutilon theophrasti Medicago,2.02 (0.77-3.38) g a.i./ha
same,GR90 (95% confidence interval),[1]; Abutilon theophrasti Medicago,8.83 (6.22-11.10) g a.i./ha
same,GR50,Eleusine indica,2.75 g a.i./ha
same,GR90,Eleusine indica,16.07 g a.i./ha
same,GR50,Digitaria sanguinalis,10.09 g a.i./ha
same,GR90,Digitaria sanguinalis,36.27 g a.i./ha
same,GR50,Echinochloa crusgalli,6.52 g a.i./ha
same,GR90,Echinochloa crusgalli,12.92 g a.i./ha
same,Corn Growth Status,Corn (Sweet Corn); [2],"Good, Normal Growth"
same,Fresh Weight,Corn (Sweet Corn); [2],7.6 g
same,Fresh Weight Control Efficacy,Corn (Sweet Corn); [2],−2.0%
same,Corn Growth Status,Corn (Sweet Corn); [3],"Good, Normal Growth"
same,Fresh Weight,Corn (Sweet Corn); [3],7.4 g
same,Fresh Weight Control Efficacy,Corn (Sweet Corn); [3],−0.3%
same,Corn Growth Status,Corn (Sweet Corn); [4],"Good, Normal Growth"
same,Fresh Weight,Corn (Sweet Corn); [4],7.4 g
same,Fresh Weight Control Efficacy,Corn (Sweet Corn); [4],−0.3%
same,Corn Growth Status,Corn (Sweet Corn); [5],"Good, Normal Growth"
same,Fresh Weight,Corn (Sweet Corn); [5],7.3 g
same,Fresh Weight Control Efficacy,Corn (Sweet Corn); [5],1.0%
same,Safety to corn (in words),"Corn (Sweet Corn); sweet corn, all dosages",safe
same,Corn Growth Status,Corn (White Waxy Corn); [6],"Good, Normal Growth"
same,Fresh Weight,Corn (White Waxy Corn); [6],9.7 g
same,Fresh Weight Control Efficacy,Corn (White Waxy Corn); [6],−2.7%
same,Corn Growth Status,Corn (White Waxy Corn); [7],"Good, Normal Growth"
same,Fresh Weight,Corn (White Waxy Corn); [7],9.4 g
same,Fresh Weight Control Efficacy,Corn (White Waxy Corn); [7],0.3%
same,Corn Growth Status,Corn (White Waxy Corn); [8],"Good, Normal Growth"
same,Fresh Weight,Corn (White Waxy Corn); [8],9.5 g
same,Fresh Weight Control Efficacy,Corn (White Waxy Corn); [8],−0.3%
same,Corn Growth Status,Corn (White Waxy Corn); [9],"Good, Normal Growth"
same,Fresh Weight,Corn (White Waxy Corn); [9],9.0 g
same,Fresh Weight Control Efficacy,Corn (White Waxy Corn); [9],4.5%
same,Growth of corn / phytotoxicity (in words),"Corn (White Waxy Corn); white waxy corn, highest dosage, 120 grams of active ingredient per hectare","normal, without causing any phytotoxicity"
same,Growth of corn / phytotoxicity (in words),"Corn (Zhengdan 958); Zhengdan 958, all dosages",normal
same,Corn Growth Status,Corn (Zhengdan 958); [10],"Good, Normal Growth"
same,Fresh Weight,Corn (Zhengdan 958); [10],15.2 g
same,Fresh Weight Control Efficacy,Corn (Zhengdan 958); [10],−0.5%
same,Corn Growth Status,Corn (Zhengdan 958); [11],"Good, Normal Growth"
same,Fresh Weight,Corn (Zhengdan 958); [11],14.9 g
same,Fresh Weight Control Efficacy,Corn (Zhengdan 958); [11],1.8%
same,Corn Growth Status,Corn (Zhengdan 958); [12],"Good, Normal Growth"
same,Fresh Weight,Corn (Zhengdan 958); [12],15.2 g
same,Fresh Weight Control Efficacy,Corn (Zhengdan 958); [12],−0.5%
same,Corn Growth Status,Corn (Zhengdan 958); [13],"Good, Normal Growth"
same,Fresh Weight,Corn (Zhengdan 958); [13],15.6 g
same,Fresh Weight Control Efficacy,Corn (Zhengdan 958); [13],−2.8%
